Assay results: patent publication US12102660B2, “Association of N-acetylcysteine and colistin for use in bacterial infections” (Zambon S.P.A., priority 2017, dated 2024)
Like-named read-outs stand apart in the source and are kept apart here.

Legend:
[1] = test system: colistin resistant A. baumannii clinical isolates; assay: MIC determination and classic checkerboard assays (colistin, NAC); assay type: cell-based, Acinetobacter baumannii; settings: for MIC: Acinetobacter baumannii
Method: (§1) In vitro antimicrobial synergism between NAC and colistin was determined following EUCAST guidelines. In particular, the total fractional inhibitory concentration (ΣFIC) was calculated as follows: ΣFIC equals FIC of agent A plus FIC of agent B, where the FIC of agent A or B is the minimum inhibitory concentration (MIC) of agent A or B in the presence of the other divided by the MIC of agent A or B alone. Synergism was defined as a ΣFIC value of <0.5.
Classic checkerboard assays were used to investigate potential synergism between colistin (range 0.25-256 μg/ml) and NAC (range 0.5-32 mg/ml). Fraction inhibitory concentration indices (FICIs) were calculated, and synergism was defined as FICI values <0.5. Synergy between colistin and NAC was also confirmed by time-kill assays performed with one isolate, using two different concentrations of colistin (2 and 8 μg/ml, representing concentrations achievable in serum and epithelial lining fluid—ELF, respectively) and NAC (1.6 and 8 mg/ml, likely achievable in ELF by topical administration).

[2] = test system: S. maltophilia clinical isolates; assay: as above; assay type: cell-based, Stenotrophomonas maltophilia; settings: for MIC: Stenotrophomonas maltophilia
Method: as §1
Twenty S. maltophilia clinical isolates were tested, including also four isolates from patients affected by cystic fibrosis (CF). […] Synergism between colistin (range 0.25-256 μg/ml) and NAC (range 0.5-32 mg/ml) was investigated by classic checkerboard assays. Fraction inhibitory concentration indices (FICIs) were calculated, and synergism was defined as FICI values <0.5. Time-kill assays were performed with two clinical isolates (including one strain resistant to trimethoprim-sulphamethoxazole, and one from CF). For this purpose, two different concentrations of colistin (2 and 8 μg/ml, representing concentrations achievable in serum and epithelial lining fluid—ELF, respectively) and NAC (1.6 and 8 mg/ml, likely achievable in ELF by topical administration) were tested alone and in combination.

[3] = seven colistin resistant A. baumannii clinical isolates
[4] = twenty S. maltophilia clinical isolates

MIC ([1]; isolate N50, read-out: NAC MIC)	MIC ([1]; the remaining A. baumannii isolates, read-out: MIC of NAC)	MIC ([1]; two of seven A. baumannii isolates, read-out: MIC of NAC)	MIC ([2]; nine S. maltophilia isolates)	MIC ([2]; one S. maltophilia isolate)	MIC ([2]; the remaining S. maltophilia isolates)	Compound	Colistin MIC ([1]; isolate N50)	MIC50 [1, 3]	MIC90 [1, 3]	colistin MIC range [1, 3]	colistin 8 μg/ml as multiple of MIC ([1]; strain Z165)	colistin 8 μg/ml as multiple of MIC ([1]; strain Z167)	MIC50 [2, 4]	MIC90 [2, 4]
> 32 mg/mL	> 32 mg/mL	32 mg/mL	16 mg/mL	> 32 mg/mL	32 mg/mL	CC(=O)N[C@@H](CS)C(=O)O [NAC, N-acetylcysteine]								
						colistin sulfate	0.016 mg/mL	0.064 mg/mL	0.128 mg/mL	0.016 to 0.256 mg/mL	0.25 ×MIC	0.06 ×MIC	0.016 mg/mL	0.064 mg/mL
